The source of these data is patent US20160295864A1 (priority 2014, published 2016).

One may read the inhibition as the relative decrease from the control value, in per cent.

Structures are written as SMILES.

The test system of test [1] is Pyricularia oryzae (Magnaporthe grisea). The test can be described thus: microbe, parasite or virus in culture. Conditions: read-out: Magnaporthe grisea inhibition. In kind it is cell-based.
Test [2] concerns Botrytis cinerea AARF-033. The test can be described thus: Antifungal activity test against rice Botrytis cinerea (96 well microplate, conidia in glucose broth). Conditions: AARF033, 96 h, conidia 1×10^4 conidia/ml, stationary culturing for 4 days at 25° C. In kind it is cell-based. The text has this:
Test specimens (compound (4a-2) and compound (4b-2)), (compound (4a-3) and compound (4b-3)), and reference compounds i.e. iprodione and Captan, were each independently dissolved in dimethyl sulfoxide (DMSO) and adjusted to a concentration of 10,000 ppm. The test solution was dispensed 2 μ/ml in a flat-bottomed 96 well microplate, and then, conidia of rice Botrytis cinerea (Botrytis cinerea AARF-033) cultured on glucose agar medium, suspended in glucose broth and adjusted to 1×10^4 conidia/ml, were dispensed 198 μ/mL, followed by stirring by a micromixer. At that time, the concentrations of the test specimen and the reference compound, were 100 ppm. Thereafter, the antimicrobial activities were evaluated by stationary culturing for 4 days at 25° C.

On to `CCCCNC(=O)n1c(NC(=O)OC)nc2ccccc21` [Benomyl, benomyl], for which the inhibition at 100 ppm in test [1] was at least 95%.
In the case of `O=C1C2CC=CCC2C(=O)N1SC(Cl)(Cl)Cl` (stereo not shown) [Captan], in test [2], the inhibition at 100 ppm is at least 95%.
With `CO/N=C(/C1=NOCCO1)c1ccccc1Oc1ncnc(Oc2ccccc2Cl)c1F` [Fluoxastrobin, fluoxastrobin], the inhibition at 100 ppm in test [1] is at least 95%.
`CC(C)NC(=O)N1CC(=O)N(c2cc(Cl)cc(Cl)c2)C1=O` [Iprodione, iprodione]: the inhibition at 100 ppm in test [2] was at least 95%.
